Patent publication US20140212407A1, “TREATMENT OF OBESITY” (Isis Innovation Limited, priority 2008, published 2014)

Tests used:
[1] = Badiou et al. 2005; cited from earlier work
[2] = Body weight and food intake in rats on MR diet with or without L-cysteine, 3 weeks; assay type: in vivo, rat; conditions: L-cysteine 5 g/kg added to MR diet, preliminary
Excerpt: To distinguish the effect of cysteine on body weight from that of methionine, the same experiment described above was repeated with addition of a third group. In addition to the methionine restricted (MR) and control groups, a third group was included comprising rats fed an MR diet supplemented with L-cysteine at a concentration of 5 g/kg diet. Age of the rats at the start of experiment, housing conditions and MR and control diets were similar to those in the above experiment. Food and water were provided ad libitum. Each group consisted of 8 rats; there was no significant difference in body weight between the 3 groups at baseline.

gene for CGL = conditions: by inhibition of the ERK/Sp1 signalling pathway; Fiorucci et al 2005; cited from earlier work
[3] = humans, concentration-dependent; Smith et al 2003; cited from earlier work
[4] = target: cystathionine γ-lyase (CGL) (Homo sapiens, UniProt P32929); conditions: Steegborn et al J Biol Chem 1999; cited from earlier work
Sequence of cystathionine γ-lyase (CGL) (P32929 whole entry): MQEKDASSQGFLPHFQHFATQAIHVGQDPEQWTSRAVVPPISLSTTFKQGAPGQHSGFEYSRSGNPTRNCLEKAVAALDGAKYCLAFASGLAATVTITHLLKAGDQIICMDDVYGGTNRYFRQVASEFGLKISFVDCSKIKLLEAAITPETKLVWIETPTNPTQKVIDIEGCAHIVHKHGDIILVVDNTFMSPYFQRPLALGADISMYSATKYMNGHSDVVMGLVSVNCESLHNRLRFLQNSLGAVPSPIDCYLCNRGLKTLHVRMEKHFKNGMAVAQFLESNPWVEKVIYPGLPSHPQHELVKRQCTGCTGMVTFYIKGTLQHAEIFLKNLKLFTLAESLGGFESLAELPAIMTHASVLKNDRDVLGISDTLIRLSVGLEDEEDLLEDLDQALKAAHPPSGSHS

## CC1(C)C[C@@H]1C(=O)N/C(=C\CCCCSC[C@H](N)C(=O)O)C(=O)O [Cilastatin, cilastatin]
[1]
  plasma cysteine levels: lowers plasma cysteine levels

## N[C@@H](CS)C(=O)O [L-cysteine]
[2]
  effect on weight gain of MR rats: prevented the decrease in weight gain

## CC(=O)Oc1ccccc1C(=O)O [aspirin]
Gene for CGL
  expression of the gene for CGL: reduce expression

## COc1ccc2c(c1)c(CC(=O)O)c(C)n2C(=O)c1ccc(Cl)cc1 [indomethacin]
Gene for CGL
  expression of the gene for CGL: reduce expression

## CC(C(=O)O)c1cccc(C(=O)c2ccccc2)c1 (stereo not shown) [ketoprofen]
Gene for CGL
  expression of the gene for CGL: reduce expression

## O=S(=O)(O)CCS [mesna]
[3]
  plasma level of cysteine: markedly reduces

## C#CCC(N)C(=O)O (stereo not shown) [propargylglycine]
[4]
  inhibition of CGL enzyme activity: potent inhibitors
